This note sets out measurements from patent publication US11312704B2, “Inhibitors of cysteine proteases and methods of use thereof” (priority 2020, dated 2022).

Read-outs that look alike come from different tables or passages of the source.

The test system of one series is HCoV 229E. As to the kind of experiment: HCoV 229E cytopathic effect (CPE) assay. The following applies: CellTiter Glo. The class given is cell-based, Human Coronavirus (HCov) 229E.
For a further series, the target named is 229E mPRO (Human coronavirus 229E (HCoV-229E), UniProt P0C6X1). The series is described as follows: 229E mPRO enzymatic assay. Type of series: biochemical, Human Coronavirus (HCov) 229E.
Sequence of 229E mPRO (P0C6X1 2966-3267 limits assumed): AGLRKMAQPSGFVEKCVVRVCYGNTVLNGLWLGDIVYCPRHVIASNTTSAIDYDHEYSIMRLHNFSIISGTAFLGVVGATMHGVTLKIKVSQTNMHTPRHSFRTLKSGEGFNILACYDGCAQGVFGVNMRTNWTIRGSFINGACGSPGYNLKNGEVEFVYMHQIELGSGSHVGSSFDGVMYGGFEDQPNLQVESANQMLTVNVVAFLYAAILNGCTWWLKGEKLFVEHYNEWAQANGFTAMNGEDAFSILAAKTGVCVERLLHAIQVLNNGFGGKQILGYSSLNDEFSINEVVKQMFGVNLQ
Series [1] deals with cell viability without virus infection. The series is described as follows: Cytotoxicity under the 229E CPE conditions without virus infection (CellTiter Glo). The following applies: read-out: 229E CC50.
The target of the next series is SARS-COV2 Mpro (Severe acute respiratory syndrome coronavirus 2 (2019-nCoV) (SARS-CoV-2), UniProt P0DTD1). As to the kind of experiment: SARS-CoV2 Mpro enzymatic assay. Type of series: biochemical. As to conditions: 25 nM Mpro, 25 μM substrate.

Procedure for 229E mPRO: Compounds were assayed using standard methods to assess compound activity and IC50. […] The assay buffer contained 20 mM of Tris-HCl (pH 7.3), 100 mM of NaCl, 1 mM of EDTA, 5 mM of TCEP and 0.1% BSA.
The compounds were added to an assay plate.
IC50 values of compounds were calculated with the GraphPad Prism software using the nonlinear regression model of log(inhibitor) vs. response—Variable slope (four parameters). The inhibition activity was calculated using the formula below, IC50 values was calculated using the Inhibition % data. Inhibition %=[(Sample-Average ZPE)/(Average HPE-Average ZPE)]*100%^#
Procedure for HCoV 229E: The antiviral activity of compounds was calculated based on the protection of the virus-induced CPE at each concentration normalized by the virus control.
Reagents and instruments used in this assay include luminescent cell viability assay kit CellTiter Glo (Promega) and Microplate Reader Synergy2 (BioTek).
Cytopathic effect (CPE) was measured by CellTiter Glo following the manufacturer's manual. The antiviral activity of compounds was calculated based on the protection of the virus-induced CPE at each concentration normalized by the virus control.

For the molecule `N#C[C@H](C[C@@H]1CCCNC1=O)NC(=O)[C@H](CC1CC1)NC(=O)c1cc2cccc(Cl)c2[nH]1` (single isomer, unassigned) [639 (Isomer 1)], the EC50 in the series with HCoV 229E was under 2000 nM. Besides, the IC50 at 229E mPRO (read-out: 229E mPRO IC50) was under 2000 nM. Turning to `COc1cccc2[nH]c(C(=O)N[C@@H](CC(C)C)C(=O)N[C@@H](C[C@@H]3CCNC3=O)C(C#N)N3CCCC3)cc12` (single isomer, unassigned) [331 (Isomer 2)], the IC50 at 229E mPRO (read-out: 229E mPRO IC50) was under 2000 nM. As to `COc1cccc2[nH]c(C(=O)N[C@H](CC3CC3)C(=O)N[C@H](C#N)C[C@@H]3CCCNC3=O)cc12` (single isomer, unassigned) [491A (Isomer 2)], on 229E mPRO, the IC50 was under 2000 nM. `CC(C)CC(NC(=O)c1nc2ncccc2[nH]1)C(=O)NC(C#N)CC1CCNC1=O` (single isomer, unassigned) [130 (Isomer 1)]: in series [1], the CC50 is over 30000 nM. In the case of `COc1cccc2[nH]c(C(=O)N[C@@H](CC3CC3)C(=O)N[C@H](C#N)C[C@@H]3CCCNC3=O)cc12` (single isomer, unassigned) [491 (Isomer 1)], the IC50 at 229E mPRO (read-out: 229E mPRO IC50) is under 2000 nM. For `COc1cccc2[nH]c(C(=O)N[C@@H](CC(C)C)C(=O)N[C@@H](C[C@@H]3CCNC3=O)C(C#N)Nc3ccccc3)cc12` (some centres unmarked) [Compound 327], the IC50 on SARS-COV2 Mpro and at 229E mPRO (read-out: 229E mPRO IC50) was under 2000 nM each time.

On to `CCNC(C#N)[C@H](C[C@@H]1CCNC1=O)NC(=O)[C@H](CC(C)C)NC(=O)c1cc2c(OC)cccc2[nH]1` (single isomer, unassigned) [511 (Isomer 1)], for which the EC50 with HCoV 229E is under 2000 nM. For the same molecule, on 229E mPRO (read-out: 229E mPRO IC50), the IC50 was under 2000 nM. Regarding `COc1cccc2[nH]c(C(=O)N3C[C@H](OC)C[C@H]3C(=O)N[C@H](C#N)C[C@@H]3CCNC3=O)cc12` [Compound 407], the EC50 in the series on HCoV 229E was under 2000 nM. Further, the IC50 on 229E mPRO (read-out: 229E mPRO IC50) is under 2000 nM. Turning to `CCNC(C#N)[C@H](C[C@@H]1CCNC1=O)NC(=O)[C@H](CC(C)C)NC(=O)c1cc2c(OC)cccc2[nH]1` (single isomer, unassigned) [511 (Isomer 2)], the IC50 at 229E mPRO (read-out: 229E mPRO IC50) was under 2000 nM. As to `COc1cccc2[nH]c(C(=O)N3CC4(CCC4)CC3C(=O)N[C@H](C#N)C[C@@H]3CCCNC3=O)cc12` (single isomer, unassigned) [719 (Isomer 2)], the IC50 on SARS-COV2 Mpro and at 229E mPRO (read-out: 229E mPRO IC50) was under 2000 nM throughout. Moreover, in the series on HCoV 229E, the EC50 was under 2000 nM. As to `COc1cccc2[nH]c(C(=O)N[C@@H](CC(C)C)C(=O)N[C@H](C#N)Cc3cn(C)cn3)cc12` [Compound 227, N-[(1S)-1-[[(1S)-1-cyano-2-(1-methylimidazol-4-yl)ethyl]carbamoyl]-3-methyl-butyl]-4-methoxy-1H-indole-2-carboxamide], the IC50 at 229E mPRO (read-out: 229E mPRO IC50) is over 30000 nM.

As to `N#C[C@H](C[C@@H]1CCCNC1=O)NC(=O)[C@H](CC1CC1)NC(=O)c1nc2c(Cl)ccc(Cl)c2[nH]1` [Compound 637, 4,7-dichloro-N-[(1S)-2-[[(1S)-1-cyano-2-[(3S)-2-oxo-3-piperidyl]ethyl]amino]-1-(cyclopropylmethyl)-2-oxo-ethyl]-1H-benzimidazole-2-carboxamide], in the series with HCoV 229E, the EC50 was under 2000 nM. In the series with HCoV 229E, `N#C[C@H](C[C@@H]1CCNC1=O)NC(=O)[C@H](CC1CC1)NC(=O)c1cc2c(C3CC3)cccc2[nH]1` [Compound 375A] displayed an EC50 of under 2000 nM.

In turn, `COc1cccc2[nH]c(C(=O)N[C@@H](CC(C)(C)C)C(=O)N[C@H](C#N)C[C@@H]3CCNC3=O)cc12` [Compound 405, N-[(1S)-1-[[(1S)-1-cyano-2-[(3S)-2-oxopyrrolidin-3-yl]ethyl]carbamoyl]-3,3-dimethyl-butyl]-4-methoxy-1H-indole-2-carboxamide] gave an EC50 with HCoV 229E of under 2000 nM. `CCCOc1cccc2[nH]c(C(=O)N[C@@H](CC(C)C)C(=O)N[C@H](C#N)C[C@@H]3CCNC3=O)cc12` [Compound 379]: the EC50 in the series with HCoV 229E is under 2000 nM. For the same molecule, the IC50 at 229E mPRO (read-out: 229E mPRO IC50) was under 2000 nM. In turn, `N#C[C@H](C[C@@H]1CCCNC1=O)NC(=O)[C@H](CC1CC1)NC(=O)c1cc2cc(Cl)ncc2[nH]1` [Compound 717] yielded an EC50 with HCoV 229E of under 2000 nM. In the series with HCoV 229E, `COc1cccc2[nH]c(C(=O)N3C[C@H]4C([C@H]3C(=O)N[C@H](C#N)C[C@@H]3CCNC3=O)C4(C)C)cc12` (stereo partly drawn) [Compound 197, (2S,5S)—N-[(1S)-1-cyano-2-[(3S)-2-oxopyrrolidin-3-yl]ethyl]-3-(4-methoxy-1H-indole-2-carbonyl)-6,6-dimethyl-3-azabicyclo[3.1.0]hexane-2-carboxamide] gave an EC50 of under 2000 nM.

In the series with HCoV 229E, `COc1cccc2[nH]c(C(=O)N3C[C@H](c4ccccc4)C[C@H]3C(=O)N[C@H](C#N)C[C@@H]3CCNC3=O)cc12` [Compound 171] displayed an EC50 of under 2000 nM. As to `COc1cccc2[nH]c(C(=O)N3CC4(CCCC4)C[C@H]3C(=O)N[C@H](C#N)C[C@@H]3CCNC3=O)cc12` [Compound 401, (S)—N—((S)-1-cyano-2-((S)-2-oxopyrrolidin-3-yl)ethyl)-2-(4-methoxy-1H-indole-2-carbonyl)-2-azaspiro[4.4]nonane-3-carboxamide], in the series with HCoV 229E, the EC50 is under 2000 nM.
